{"source": "patent US20210260108A1", "about": "“ZINC-CONTAINING, WATER-SOLUBLE POLYGLUTAMIC ACID COMPLEX COMPOSITION” (Alextand Co., Ltd, priority 2018, published 2021)", "details": "1 g added to 25 mL of water at room temperature (about 25° C., 1 atmosphere)", "data": [{"smiles": "[O]=[Zn]", "note": "[zinc oxide]", "values": [{"measurement": "Water solubility", "value": "almost insoluble"}]}]}
